In patent publication EP3807270B1, “NOVEL HETEROARYL HETEROCYCLYL COMPOUNDS FOR THE TREATMENT OF AUTOIMMUNE DISEASE” (F. Hoffmann-La Roche AG, priority 2018, dated 2019):
Values belong to the compound of their own block, whether it stands above or below them.

What was measured:
[1] = Human microsome stability assay; format: in vitro ADME; conditions: 1 µM test compound, 0.5 mg/mL liver microsomal protein, 37 °C
Method: The human microsomal stability assay is used for early assessment of metabolic stability of a test compound in human liver microsomes.
Human liver microsomes (Cat.NO.: 452117, Corning, USA;Cat.NO.:H2610, Xenotech, USA) were preincubated with test compound for 10 minutes at 37 °C in 100 mM potassium phosphate buffer, pH 7.4. The reactions were initiated by adding NADPH regenerating system. The final incubation mixtures contained 1 µM test compound, 0.5 mg/mL liver microsomal protein, 1 mM MgClz, 1 mM NADP, 1 unit/mL isocitric dehydrogenase and 6 mM isocitric acid in 100 mM potassium phosphate buffer, pH 7.4. After incubation times of 0, 3, 6, 9, 15 and 30 minutes at 37 °C, 300 µL of cold acetonitrile (including internal standard) was added to 100 µL incubation mixture to terminate the reaction. Following precipitation and centrifugation, the amount of compound remaining in the samples were determined by LC-MS/MS. Controls of no NADPH regenerating system at zero and 30 minutes were also prepared and analyzed. […] Table 6. Human liver microsome stability of the compounds of present invention

hTLR9 = target: T1, hTLR9 (Homo sapiens, UniProt Q9NR96); set-up: host or cells: HEK; conditions: data disclosed in US20150105370; read-out: HEK/hTLR9 IC50; cited from earlier work
T1 sequence (Q9NR96 26-1032): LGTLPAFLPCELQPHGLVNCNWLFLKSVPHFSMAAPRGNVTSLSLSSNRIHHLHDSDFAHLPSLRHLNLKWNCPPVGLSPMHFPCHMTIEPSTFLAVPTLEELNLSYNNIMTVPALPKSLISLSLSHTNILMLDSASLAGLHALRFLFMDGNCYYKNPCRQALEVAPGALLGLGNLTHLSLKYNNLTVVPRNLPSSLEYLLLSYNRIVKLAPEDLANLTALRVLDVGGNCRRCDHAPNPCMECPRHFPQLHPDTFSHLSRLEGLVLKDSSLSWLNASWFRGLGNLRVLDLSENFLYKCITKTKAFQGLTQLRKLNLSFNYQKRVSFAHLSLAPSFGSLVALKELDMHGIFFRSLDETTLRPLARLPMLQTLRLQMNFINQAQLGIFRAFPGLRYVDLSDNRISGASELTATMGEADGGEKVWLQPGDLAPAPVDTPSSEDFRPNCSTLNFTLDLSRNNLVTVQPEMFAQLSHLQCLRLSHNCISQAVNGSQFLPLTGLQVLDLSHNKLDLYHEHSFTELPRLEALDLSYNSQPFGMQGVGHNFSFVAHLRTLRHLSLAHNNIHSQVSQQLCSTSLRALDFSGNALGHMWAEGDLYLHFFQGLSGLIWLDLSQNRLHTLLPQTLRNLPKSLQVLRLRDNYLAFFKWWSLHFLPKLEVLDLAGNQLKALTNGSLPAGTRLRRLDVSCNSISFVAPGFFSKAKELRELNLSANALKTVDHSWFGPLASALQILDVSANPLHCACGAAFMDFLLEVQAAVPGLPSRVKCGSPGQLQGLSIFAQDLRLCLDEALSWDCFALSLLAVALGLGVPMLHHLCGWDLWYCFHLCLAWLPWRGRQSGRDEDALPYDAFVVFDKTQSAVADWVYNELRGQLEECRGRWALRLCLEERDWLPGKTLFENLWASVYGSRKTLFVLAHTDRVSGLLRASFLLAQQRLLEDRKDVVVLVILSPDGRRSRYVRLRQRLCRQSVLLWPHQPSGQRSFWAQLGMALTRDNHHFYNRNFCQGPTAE

hTLR7 = target: T2, hTLR7 (Homo sapiens, UniProt Q9NYK1); set-up: host or cells: HEK; conditions: data disclosed in US20150105370; read-out: HEK/hTLR7 IC50; cited from earlier work
T2 sequence (Q9NYK1 27-1049): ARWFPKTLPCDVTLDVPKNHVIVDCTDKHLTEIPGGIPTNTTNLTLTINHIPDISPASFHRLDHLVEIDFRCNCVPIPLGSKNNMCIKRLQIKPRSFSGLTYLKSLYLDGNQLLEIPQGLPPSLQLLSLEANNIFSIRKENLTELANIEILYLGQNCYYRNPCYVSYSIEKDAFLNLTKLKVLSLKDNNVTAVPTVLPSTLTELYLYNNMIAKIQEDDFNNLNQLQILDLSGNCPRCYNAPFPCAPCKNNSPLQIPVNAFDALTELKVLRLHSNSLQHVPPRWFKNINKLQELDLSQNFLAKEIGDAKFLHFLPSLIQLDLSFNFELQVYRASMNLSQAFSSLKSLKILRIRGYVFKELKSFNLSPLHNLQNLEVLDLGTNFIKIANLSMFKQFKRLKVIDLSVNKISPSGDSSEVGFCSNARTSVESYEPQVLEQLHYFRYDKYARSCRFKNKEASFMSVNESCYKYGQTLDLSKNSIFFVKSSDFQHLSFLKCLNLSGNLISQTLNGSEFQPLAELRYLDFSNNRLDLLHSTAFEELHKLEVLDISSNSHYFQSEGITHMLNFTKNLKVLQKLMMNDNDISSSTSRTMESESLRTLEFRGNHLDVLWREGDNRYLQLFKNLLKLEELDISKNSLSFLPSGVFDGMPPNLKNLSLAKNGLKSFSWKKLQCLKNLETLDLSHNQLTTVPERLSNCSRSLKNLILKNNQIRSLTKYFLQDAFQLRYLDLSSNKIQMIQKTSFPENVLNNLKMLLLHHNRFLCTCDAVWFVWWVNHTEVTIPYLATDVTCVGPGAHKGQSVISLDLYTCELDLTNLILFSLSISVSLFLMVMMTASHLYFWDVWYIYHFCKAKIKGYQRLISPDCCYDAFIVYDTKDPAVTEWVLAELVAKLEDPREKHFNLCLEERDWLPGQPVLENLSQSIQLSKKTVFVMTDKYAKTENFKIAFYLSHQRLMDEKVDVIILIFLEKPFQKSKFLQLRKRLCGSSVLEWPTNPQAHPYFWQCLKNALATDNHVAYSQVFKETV

CYP2D6 = target: T3, CYP2D6 (Homo sapiens, UniProt P10635); test: CYP inhibition assay in human liver microsome; format: in vitro ADME; conditions: human liver microsomes, probe dextromethorphan, 10µM test compound, dextromethorphan substrate, <0: not or weak inhibitor, read-out: CYP 2D6 inhibition %@10µM
T3 construct: tissue BD-Gentest 452117; host or cells: human liver microsomes
T3 sequence (P10635 whole entry): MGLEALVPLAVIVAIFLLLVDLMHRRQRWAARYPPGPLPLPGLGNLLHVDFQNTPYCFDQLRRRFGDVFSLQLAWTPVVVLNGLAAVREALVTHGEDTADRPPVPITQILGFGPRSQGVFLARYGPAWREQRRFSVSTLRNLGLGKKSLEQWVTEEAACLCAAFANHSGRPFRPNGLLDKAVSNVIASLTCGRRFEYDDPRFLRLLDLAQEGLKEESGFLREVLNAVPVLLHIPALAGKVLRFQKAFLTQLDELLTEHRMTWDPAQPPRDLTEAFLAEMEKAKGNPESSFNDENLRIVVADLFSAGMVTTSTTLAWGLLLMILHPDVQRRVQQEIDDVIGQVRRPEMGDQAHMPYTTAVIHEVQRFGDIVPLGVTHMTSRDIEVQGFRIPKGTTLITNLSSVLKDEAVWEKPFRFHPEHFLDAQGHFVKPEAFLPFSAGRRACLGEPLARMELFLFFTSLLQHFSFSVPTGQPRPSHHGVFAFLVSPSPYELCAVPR
Method: This is a high throughput screening assay used for assessment of reversible inhibition of CYP2D6 activity of test compounds in human liver microsome (HLM) in early discovery stage. Table 4. Chemicals and materials used in the CYP inhibition assay
10 mM DMSO stock solutions of test compounds were diluted in DMSO to generate 2 mM intermediate stock solution. 250 nL of intermediate stock solution were transferred in duplicate into 3 separate 384 well microtitre plates (assay-ready plates). A mixture of HLM and each substrate was made up. 45 µL of HLM substrate mix was then transferred to each well of an assay ready plate and mixed. The negative (solvent) and positive control (standard inhibitor for CYP 2D6) were included in each assay ready plate. The assay ready plate was warmed to 37 °C in an incubator over 10 minutes. 5 µL pre-warmed NADPH regenerating system was added to each incubation well to start the reaction. Final incubation volume was 50 µL. The assay plate then was placed back in the 37 °C incubator. After 10-minute incubation, incubates were quenched by addition of 50 µL 100% acetonitrile containing internal standards (20 ng/mL D3-Dextrorphan). The supernatants were collected for RapidFire/MS/MS analysis.
RapidFire online solid phase extraction/sample injection system (Agilent) coupled with API4000 triple quadrupole mass spectrometer (AB Sciex) were used for sample analysis. The mobile phase composed of acetonitrile and water supplemented with 0.1% formic acid. A C4 solid phase extraction cartridge is used for sample separation. MS detection is achieved in positive ion MRM mode.
Peak areas for substrate, metabolite and internal standard are determined using the RapidFire integrator software (version 3.6.12009.12296). Peak area ratios (PAR) of metabolite and internal standard (stable-labelled metabolite) are then calculated. The measurement window for each experiment is then defined: • PAR (0% activity)= average PAR for all incubations containing concentrated inhibitor; • Par (100% activity)= average PAR for all incubations containing no inhibitor (DMSO controls); • % Activity (test inhibitor) • =[PAR(test inhibitor)-PAR(0% activity)]/[PAR(100% activity)-PAR(0% activity)]; • % Inhibition (test inhibitor)=100-% Activity (test inhibitor).

Clearance of Human microsome [1]: 6.67 mL/min/kg
Compound: CCn1c(=O)cc(N2C[C@H](CN3CCN(c4ccc5c(n4)CN[C@@H]5C)CC3)O[C@H](C)C2)c2cccnc21 [Example 101, 1-ethyl-4-[(2R,6S)-2-methyl-6-[[4-[(5R)-5-methyl-6,7-dihydro-5H-pyrrolo[3,4-b]pyridin-2-yl]piperazin-1-yl]methyl]morpholin-4-yl]-1,8-naphthyridin-2-one]

Compound: C[C@@H]1CN(c2ccc(C#N)c3ncccc23)C[C@H](CN2CC3COCC(C2)N3c2cnc3c(c2)CNC3)O1 [Example 37, 5-[(2S,6R)-2-[[9-(6,7-dihydro-5H-pyrrolo[3,4-b]pyridin-3-yl)-3-oxa-7,9-diazabicyclo[3.3.1]nonan-7-yl]methyl]-6-methyl-morpholin-4-yl]quinoline-8-carbonitrile]
Clearance of Human microsome [1]: 6.72 mL/min/kg

Compound: Cc1nn(C)cc1S(=O)(=O)NC1CCN(C[C@H]2CN(c3ccc(C#N)c4ncccc34)C[C@@H](C)O2)CC1 [ER-894160]
IC50 (hTLR9): > 10 µM
IC50 (hTLR7): 199 nM

inhibition at 10 min, 10 µM (CYP2D6): 14%
Compound: C[C@@H]1CN(c2ccc(C(F)(F)F)c3nccnc23)C[C@H](CN2CCN(c3cc4c(cn3)CCNC4)CC2)O1 [Example 91, (2R,6S)-2-methyl-6-[[4-(5,6,7,8-tetrahydro-2,6-naphthyridin-3-yl)piperazin-1-yl]methyl]-4-[8-(trifluoromethyl)quinoxalin-5-yl]morpholine]

inhibition at 10 min, 10 µM (CYP2D6): 5%
Compound: Cc1cnc2c(C#N)ccc(N3C[C@H](CN4CCN(c5cc6c(cn5)CCNC6)CC4)O[C@H](C)C3)c2n1 [Example 90, 2-methyl-8-[(2R,6S)-2-methyl-6-[[4-(5,6,7,8-tetrahydro-2,6-naphthyridin-3-yl)piperazin-1-yl]methyl]morpholin-4-yl]quinoxaline-5-carbonitrile]

Clearance of Human microsome [1]: 8.54 mL/min/kg
Compound: C[C@@H]1CN(c2cc(=O)n(C)c3ncccc23)C[C@H](CN2CCN(c3ccc4c(n3)CN[C@@H]4C)CC2)O1 [Example 100, 1-methyl-4-[(2R,6S)-2-methyl-6-[[4-[(5R)-5-methyl-6,7-dihydro-5H-pyrrolo[3,4-b]pyridin-2-yl]piperazin-1-yl]methyl]morpholin-4-yl]-1,8-naphthyridin-2-one]

Clearance of Human microsome [1]: 7.28 mL/min/kg
Compound: C[C@@H]1CN(c2ccc(C#N)c3ncnn23)C[C@H](CN2CCN(c3cnc4c(c3)CNCC4)CC2)O1 [Example 27, 5-[(2R,6S)-2-methyl-6-[[4-(5,6,7,8-tetrahydro-1,6-naphthyridin-3-yl)piperazin-1-yl]methyl]morpholin-4-yl]-[1,2,4]triazolo[1,5-a]pyridine-8-carbonitrile]

Clearance of Human microsome [1]: 6.15 mL/min/kg
Compound: C[C@@H]1CN(c2cc(=O)n(C)c3ncccc23)C[C@H](CN2CCN(c3cc4c(cn3)CCNC4)CC2)O1 [Example 103, 1-methyl-4-[(2R,6S)-2-methyl-6-[[4-(5,6,7,8-tetrahydro-2,6-naphthyridin-3-yl)piperazin-1-yl]methyl]morpholin-4-yl]-1,8-naphthyridin-2-one]

Compound: C[C@@H]1CN(c2ccc(C#N)c3ncccc23)C[C@H](CN2CC(NS(=O)(=O)c3ccc(F)cc3)C2)O1 [ER-894155]
IC50 (hTLR9): > 10 µM
IC50 (hTLR7): 282 nM

Clearance of Human microsome [1]: 6.54 mL/min/kg
Compound: COc1ccc(N2C[C@H](CN3CCN(c4cc5c(cn4)CCNC5)CC3)O[C@H](C)C2)c2nccnc12 [Example 89, (2R,6S)-4-(8-methoxyquinoxalin-5-yl)-2-methyl-6-[[4-(5,6,7,8-tetrahydro-2,6-naphthyridin-3-yl)piperazin-1-yl]methyl]morpholine]

Compound: C[C@@H]1CN(c2ccc(C#N)c3ncccc23)C[C@H](CN2CC[C@@H](NC(=O)c3ccccc3)C2)O1 [ER-894544]
IC50 (hTLR9): > 6.2 µM
IC50 (hTLR7): 43 nM
